In publication PMC12751025, “α‑Aminoboronic Acid Moieties in Boro Dipeptides Modulate Proteasome Subunit Selectivity and Provide Access to Compounds with Potent Anticancer and Anti-Inflammatory Activity” (Journal of Medicinal Chemistry, 2025):

How the values were obtained:
[1] = target: T1, β1c subunit of human cCP (Homo sapiens, UniProt P28072+Q99436); test: IC50 determination with subunit-specific fluorogenic substrate Ac-nLPnLD-AMC; assay type: biochemical; settings: own assay
T1 construct: purchased Boston Biochem, Inc
Experimental: (§1) The measurements of the residual activity of control compounds were carried out at final compound concentrations of 1 μM in the assay buffer (50 mM Tris-HCl, 0.5 mM ethylenediaminetetraacetic acid (EDTA), pH 7.4). Stock solutions of the compounds were prepared in DMSO. To the 35 μL of solution of the compound in the buffer, 35 μL of 0.4 nM human iCP (South Bay Bio, San Jose, CA, USA) or human cCP (Boston Biochem, Inc., Cambridge, MA, USA) was added. For assays evaluating the activity of β2c and β2i, the buffer was modified by adding the proteasomal activator PA28β (Boston Biochem, Inc., Cambridge, MA, USA) at a final concentration of 6 nM. […] The substrates used were acetyl-Nle-Pro-Nle-Asp-7-amino-4-methylcoumarin (Ac-nLPnLD-AMC, Bachem, Bubendorf, Switzerland) for β1c, acetyl-Pro-Ala-Leu-7-amino-4-methylcoumarin (Ac-PAL-AMC, Boston Biochem, Inc., Cambridge, MA, USA) for β1i, acetyl-Arg-Leu-Arg-7-amino-4-methylcoumarin (Ac-RLR-AMC, Bachem, Bubendorf, Switzerland) for β2c and β2i, acetyl-Trp-Leu-Ala-7-amino-4-methylcoumarin (Ac-WLA-AMC, Bachem, Bubendorf, Switzerland) for β5c, and acetyl-Ala-Asn-Trp-7-amino-4-methylcoumarin (Ac-ANW-AMC, Bachem, Bubendorf, Switzerland) for β5i. Progress of the reaction was measured using a BioTek Synergy HT microplate reader, monitoring fluorescence at 460 nm (excitation at 360 nm) for 60 min at 37 °C. The initial linear ranges were used to calculate the reaction velocity and determine the residual activity.
(§2) The final assay mixtures contained 0.4 nM human iCP or cCP in assay buffer (50 mM Tris-HCl, 0.5 mM EDTA, pH 7.4, addition of PA28β for β2c and β2i subunits). […] After incubation at 37 °C for 30 min, the reaction was initiated by the addition of the substrate Ac-nLPnLD-AMC for β1c, Ac-PAL-AMC for β1i, Ac-RLR-AMC for β2c and β2i, Ac-WLA-AMC for β5c, and Ac-ANW-AMC for β5i. Fluorescence was monitored at 460 nm (excitation at 360 nm) for 60 min at 37 °C. The reaction progress was recorded and the initial linear phases were used to determine the velocity. The IC50 values were calculated using GraphPad Prism software (GraphPad Software, San Diego, CA, USA), and the results represent the mean values of at least three independent determinations.

[2] = target: T2, β2c subunit of human cCP (Homo sapiens, UniProt P49720+Q99436); test: IC50 determination with fluorogenic substrate Ac-RLR-AMC (PA28β added); assay type: biochemical; settings: own assay
T2 construct: purchased Boston Biochem, Inc
Experimental: Stock solutions of the compounds were prepared in DMSO. To the 35 μL of solution of the compound in the buffer, 35 μL of 0.4 nM human iCP (South Bay Bio, San Jose, CA, USA) or human cCP (Boston Biochem, Inc., Cambridge, MA, USA) was added. For assays evaluating the activity of β2c and β2i, the buffer was modified by adding the proteasomal activator PA28β (Boston Biochem, Inc., Cambridge, MA, USA) at a final concentration of 6 nM. […] The substrates used were acetyl-Nle-Pro-Nle-Asp-7-amino-4-methylcoumarin (Ac-nLPnLD-AMC, Bachem, Bubendorf, Switzerland) for β1c, acetyl-Pro-Ala-Leu-7-amino-4-methylcoumarin (Ac-PAL-AMC, Boston Biochem, Inc., Cambridge, MA, USA) for β1i, acetyl-Arg-Leu-Arg-7-amino-4-methylcoumarin (Ac-RLR-AMC, Bachem, Bubendorf, Switzerland) for β2c and β2i, acetyl-Trp-Leu-Ala-7-amino-4-methylcoumarin (Ac-WLA-AMC, Bachem, Bubendorf, Switzerland) for β5c, and acetyl-Ala-Asn-Trp-7-amino-4-methylcoumarin (Ac-ANW-AMC, Bachem, Bubendorf, Switzerland) for β5i. Progress of the reaction was measured using a BioTek Synergy HT microplate reader, monitoring fluorescence at 460 nm (excitation at 360 nm) for 60 min at 37 °C. The initial linear ranges were used to calculate the reaction velocity and determine the residual activity.
as §2

[3] = target: T3, β5c subunit of human cCP (Homo sapiens, UniProt P20618+P28074); test: IC50 determination with fluorogenic substrate Ac-WLA-AMC; assay type: biochemical; settings: own assay
T3 construct: purchased Boston Biochem, Inc
Experimental: as §1, §2

[4] = Cytotoxicity MTS assay; assay type: cell-based; settings: human, MM.1S multiple myeloma cells, 250 nM, 72 h (Figure S3), read-out: viable cells
Experimental: Cytotoxicity was determined using the MTS cell proliferation assay (CellTiter 96 AQueous One Solution Cell Proliferation Assay, Promega, Wisconsin, USA), which measures mitochondrial metabolic activity as a surrogate for cell viability. The assay was performed according to the manufacturer protocol. […] The cells were seeded in 96-well plates (15.000–30.000 cells/well). After 24 h incubation at 5% CO2 and 37 °C, the cells were treated either with DMSO (negative control) or solutions of the tested compounds in DMSO. After 24 or 72 h, MTS reagent was added. Cells were incubated for additional 2 h - 4 h, followed by the measurement of absorbance at 490 nm on the Tecan Spark microplate reader.

[5] = system: MM.1S; design: method as in previous findings; settings: reference number not given; ref previous findings; read-out: IC50 for the reduction of MM.1S viability; cited from earlier work
[6] = system: β1c; settings: in parentheses in Table S2; SI reference list; read-out: IC50 β1c, previously published data; cited from earlier work
[7] = system: β1i; settings: in parentheses in Table S2; SI reference list; read-out: IC50 β1i, previously published data; cited from earlier work
[8] = system: β2c; settings: in parentheses in Table S2; SI reference list; read-out: IC50 β2c, previously published data; cited from earlier work
[9] = system: β2i; settings: in parentheses in Table S2; SI reference list; read-out: IC50 β2i, previously published data; cited from earlier work
[10] = system: β5c; settings: in parentheses in Table S2; SI reference list; read-out: IC50 β5c, previously published data; cited from earlier work
[11] = system: β5i; settings: in parentheses in Table S2; SI reference list; read-out: IC50 β5i, previously published data; cited from earlier work
[12] = target: β5i subunit of human iCP (Homo sapiens, UniProt P20618+P28062); test: IC50 determination with fluorogenic substrate Ac-ANW-AMC; settings: IC50 β5i, own assay
Experimental: as §1, §2

[13] = target: β2i subunit of human iCP (Homo sapiens, UniProt P40306+P49720); test: IC50 determination with fluorogenic substrate Ac-RLR-AMC (PA28β added)
Experimental: as §1, §2

[14] = target: β1i subunit of human iCP (Homo sapiens, UniProt P28065+P40306); test: IC50 determination with subunit-specific fluorogenic substrate Ac-PAL-AMC; settings: IC50 β1i, own assay
Experimental: as §1, §2

IC50 [1]: > 1000 nM | IC50 [2]: > 1000 nM | IC50 [3]: 1230 ± 90 nM | IC50 [12]: 7.4 ± 1 nM | IC50 [13]: > 1000 nM | IC50 [14]: > 1000 nM
SMILES: O=C(N[C@@H](Cc1coc2ccccc12)B(O)O)[C@@H]1C[C@H]2CC[C@@H]1O2 [M3258]
viability at 72 h, […] [4]: 87% | IC50 [5]: 367 nM | IC50 [6]: > 30000 nM | IC50 [7]: > 30000 nM | IC50 [8]: > 30000 nM | IC50 [9]: > 30000 nM | IC50 [10]: 2520 nM | IC50 [11]: 4.1 nM
